Measurements taken from the NIST ThermoML archive (doi:10.1016/j.fluid.2013.06.007).
± gives the expanded uncertainty stated by the source.

Legend:
[1] = refractive index (Na D-line) (dimensionless); conditions: 298.2 K; 101.33 kPa; Liquid; Standard Abbe refractometry
[2] = 298.2 K; 101.33 kPa; Liquid; Vibrating tube method

Compound	refractive index [1]	mass density [2]
O [water]	1.3325 ± 0.0004	–
CCCCCO [pentan-1-ol]	1.4078 ± 0.0004	811.288 ± 0.63 kg/m3
CCCCCCO [hexan-1-ol]	1.416 ± 0.0005	815.167 ± 0.83 kg/m3
CCCCCCCO [heptan-1-ol]	1.4224 ± 0.0004	818.915 ± 0.63 kg/m3

The remaining lines, values ahead:

refractive index [1]	mass density [2]	Compound
1.394 ± 0.0004	802.362 ± 0.63 kg/m3	CCC(C)O (stereo not drawn) [butan-2-ol]
1.4243 ± 0.003	1199.91 ± 87 kg/m3	CC(O)C(=O)O (stereo not drawn) [2-hydroxypropanoic acid]
1.3972 ± 0.0004	805.877 ± 0.63 kg/m3	CCCCO [butan-1-ol]
